Assay results from ChEMBL document CHEMBL4038300, “Return of D4 Dopamine Receptor Antagonists in Drug Discovery” (J Med Chem, 2017).

Assays:
[1] = biological target: Adrenergic receptor alpha-2 (Homo sapiens) (UniProt P08913+P18825+P18089); experiment: Inhibition of alpha2 adrenergic receptor (unknown origin); conditions: concentration not given here
D(3) dopamine receptor [2] = biological target: T1, D(3) dopamine receptor (Homo sapiens, UniProt P35462); experiment: Inhibition of dopamine D3 receptor (unknown origin) at 10 uM
T1 sequence (P35462 whole entry): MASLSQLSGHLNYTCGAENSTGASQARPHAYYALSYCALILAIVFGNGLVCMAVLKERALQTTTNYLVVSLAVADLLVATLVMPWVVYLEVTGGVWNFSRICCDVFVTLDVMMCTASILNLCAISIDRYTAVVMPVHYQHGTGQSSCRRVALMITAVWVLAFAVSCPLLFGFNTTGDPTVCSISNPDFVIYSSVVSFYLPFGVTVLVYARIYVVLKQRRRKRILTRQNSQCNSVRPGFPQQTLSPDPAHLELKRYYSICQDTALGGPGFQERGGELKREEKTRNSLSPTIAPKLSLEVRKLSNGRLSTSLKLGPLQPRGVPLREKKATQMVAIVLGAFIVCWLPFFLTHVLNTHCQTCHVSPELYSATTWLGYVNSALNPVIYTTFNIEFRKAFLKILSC

D(1B) dopamine receptor = D(1B) dopamine receptor (Homo sapiens, UniProt P21918); experiment: Inhibition of dopamine D5 receptor (unknown origin) at 10 uM
Sequence of D(1B) dopamine receptor (P21918 whole entry): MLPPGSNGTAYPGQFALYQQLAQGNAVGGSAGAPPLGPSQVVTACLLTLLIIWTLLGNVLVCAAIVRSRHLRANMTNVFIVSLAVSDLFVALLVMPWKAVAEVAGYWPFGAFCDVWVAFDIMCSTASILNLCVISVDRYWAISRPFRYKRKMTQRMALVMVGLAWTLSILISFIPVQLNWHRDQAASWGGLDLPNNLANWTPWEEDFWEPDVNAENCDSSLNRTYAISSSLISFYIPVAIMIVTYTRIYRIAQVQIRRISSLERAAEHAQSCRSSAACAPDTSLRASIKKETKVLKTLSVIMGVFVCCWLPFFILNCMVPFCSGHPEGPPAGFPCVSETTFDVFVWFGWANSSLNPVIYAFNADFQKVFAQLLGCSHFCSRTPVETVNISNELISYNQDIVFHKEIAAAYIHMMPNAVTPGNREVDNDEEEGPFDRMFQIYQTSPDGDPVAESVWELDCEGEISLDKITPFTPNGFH

Homo sapiens = species on record: Homo sapiens; experiment: Inhibition of beta-adrenergic receptor (unknown origin); conditions: concentration not given here
[3] = biological target: 5-hydroxytryptamine receptor 2C (Homo sapiens) (UniProt P28335); experiment: Inhibition of serotonin 5-HT2C receptor (unknown origin); conditions: concentration not given here
Sequence of 5-hydroxytryptamine receptor 2C (Homo sapiens) (P28335 whole entry): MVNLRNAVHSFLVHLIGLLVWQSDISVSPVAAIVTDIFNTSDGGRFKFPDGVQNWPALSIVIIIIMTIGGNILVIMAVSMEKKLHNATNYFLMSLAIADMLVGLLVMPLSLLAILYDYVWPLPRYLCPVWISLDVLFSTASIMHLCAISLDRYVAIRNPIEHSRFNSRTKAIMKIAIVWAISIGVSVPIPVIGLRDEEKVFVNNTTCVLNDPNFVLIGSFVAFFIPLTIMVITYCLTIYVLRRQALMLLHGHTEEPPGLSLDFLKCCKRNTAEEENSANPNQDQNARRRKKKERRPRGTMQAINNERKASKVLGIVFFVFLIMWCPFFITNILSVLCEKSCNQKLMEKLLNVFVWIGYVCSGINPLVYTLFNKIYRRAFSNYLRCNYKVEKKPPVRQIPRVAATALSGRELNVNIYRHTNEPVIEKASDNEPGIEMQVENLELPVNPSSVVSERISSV

D(1A) dopamine receptor = D(1A) dopamine receptor (Homo sapiens, UniProt P21728); experiment: Inhibition of dopamine D1 receptor (unknown origin) at 10 uM
Sequence of D(1A) dopamine receptor (P21728 whole entry): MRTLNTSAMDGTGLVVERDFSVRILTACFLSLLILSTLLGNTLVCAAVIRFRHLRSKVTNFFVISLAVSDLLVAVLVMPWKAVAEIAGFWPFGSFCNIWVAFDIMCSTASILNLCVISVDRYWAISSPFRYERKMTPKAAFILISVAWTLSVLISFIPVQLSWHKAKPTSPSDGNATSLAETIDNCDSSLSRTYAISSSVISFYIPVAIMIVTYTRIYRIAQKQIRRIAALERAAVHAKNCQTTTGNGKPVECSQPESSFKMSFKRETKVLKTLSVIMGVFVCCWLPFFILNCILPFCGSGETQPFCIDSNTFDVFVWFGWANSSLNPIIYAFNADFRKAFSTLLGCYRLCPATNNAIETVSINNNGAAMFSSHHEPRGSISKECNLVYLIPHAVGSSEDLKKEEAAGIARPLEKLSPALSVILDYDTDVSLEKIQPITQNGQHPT

[4] = Inhibition of human dopamine D4.7 receptor
[5] = biological target: Adrenergic receptor alpha-1 (Homo sapiens) (UniProt P35348+P25100+P35368); experiment: Inhibition of alpha1 adrenergic receptor (unknown origin); conditions: concentration not given here
[6] = biological target: Neuropeptide Y receptor type 1 (Homo sapiens) (UniProt P25929); experiment: Inhibition of NPY1 receptor (unknown origin); conditions: concentration not given here
Sequence of Neuropeptide Y receptor type 1 (Homo sapiens) (P25929 whole entry): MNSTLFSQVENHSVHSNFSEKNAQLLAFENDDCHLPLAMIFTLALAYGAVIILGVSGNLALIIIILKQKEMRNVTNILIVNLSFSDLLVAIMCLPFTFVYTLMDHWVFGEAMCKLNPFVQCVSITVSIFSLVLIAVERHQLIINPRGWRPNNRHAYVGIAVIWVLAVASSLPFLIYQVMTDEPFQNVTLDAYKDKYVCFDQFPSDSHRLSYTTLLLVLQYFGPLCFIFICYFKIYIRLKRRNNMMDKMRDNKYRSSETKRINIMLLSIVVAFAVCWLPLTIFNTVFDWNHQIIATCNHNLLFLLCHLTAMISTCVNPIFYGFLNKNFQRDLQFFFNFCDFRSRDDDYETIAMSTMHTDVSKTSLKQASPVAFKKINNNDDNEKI

[7] = Inhibition of human dopamine D4.4 receptor
[8] = biological target: Neuropeptide Y receptor type 2 (Homo sapiens) (UniProt P49146); experiment: Inhibition of NPY2 receptor (unknown origin); conditions: concentration not given here
Sequence of Neuropeptide Y receptor type 2 (Homo sapiens) (P49146 whole entry): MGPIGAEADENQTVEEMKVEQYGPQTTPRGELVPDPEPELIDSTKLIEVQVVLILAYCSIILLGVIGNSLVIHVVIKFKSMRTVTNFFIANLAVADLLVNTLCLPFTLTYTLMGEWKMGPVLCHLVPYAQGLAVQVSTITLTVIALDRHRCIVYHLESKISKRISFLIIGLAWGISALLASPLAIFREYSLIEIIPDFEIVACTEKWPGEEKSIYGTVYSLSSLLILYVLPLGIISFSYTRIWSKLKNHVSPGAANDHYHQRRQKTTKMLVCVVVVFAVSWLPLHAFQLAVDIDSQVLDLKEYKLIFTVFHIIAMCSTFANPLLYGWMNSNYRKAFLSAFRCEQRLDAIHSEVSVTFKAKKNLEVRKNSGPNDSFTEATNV

[9] = biological target: Histamine H3 receptor (Homo sapiens) (UniProt Q9Y5N1); experiment: Inhibition of histamine H3 receptor (unknown origin); conditions: concentration not given here
Sequence of Histamine H3 receptor (Homo sapiens) (Q9Y5N1 whole entry): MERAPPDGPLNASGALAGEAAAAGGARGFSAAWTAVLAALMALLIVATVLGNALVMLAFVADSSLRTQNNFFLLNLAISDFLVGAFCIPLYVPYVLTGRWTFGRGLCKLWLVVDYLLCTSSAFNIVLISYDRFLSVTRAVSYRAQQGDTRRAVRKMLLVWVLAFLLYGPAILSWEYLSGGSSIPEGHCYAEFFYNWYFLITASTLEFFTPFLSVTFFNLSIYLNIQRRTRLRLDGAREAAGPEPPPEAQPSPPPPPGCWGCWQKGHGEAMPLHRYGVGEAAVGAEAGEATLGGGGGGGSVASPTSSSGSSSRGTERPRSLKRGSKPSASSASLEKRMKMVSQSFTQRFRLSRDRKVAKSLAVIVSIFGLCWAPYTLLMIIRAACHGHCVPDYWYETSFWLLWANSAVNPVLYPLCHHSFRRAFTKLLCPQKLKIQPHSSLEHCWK

[10] = biological target: 5-hydroxytryptamine receptor 2A (Homo sapiens, UniProt P28223); experiment: Inhibition of serotonin 5-HT2 receptor (unknown origin); conditions: concentration not given here
Sequence of 5-hydroxytryptamine receptor 2A (P28223 whole entry): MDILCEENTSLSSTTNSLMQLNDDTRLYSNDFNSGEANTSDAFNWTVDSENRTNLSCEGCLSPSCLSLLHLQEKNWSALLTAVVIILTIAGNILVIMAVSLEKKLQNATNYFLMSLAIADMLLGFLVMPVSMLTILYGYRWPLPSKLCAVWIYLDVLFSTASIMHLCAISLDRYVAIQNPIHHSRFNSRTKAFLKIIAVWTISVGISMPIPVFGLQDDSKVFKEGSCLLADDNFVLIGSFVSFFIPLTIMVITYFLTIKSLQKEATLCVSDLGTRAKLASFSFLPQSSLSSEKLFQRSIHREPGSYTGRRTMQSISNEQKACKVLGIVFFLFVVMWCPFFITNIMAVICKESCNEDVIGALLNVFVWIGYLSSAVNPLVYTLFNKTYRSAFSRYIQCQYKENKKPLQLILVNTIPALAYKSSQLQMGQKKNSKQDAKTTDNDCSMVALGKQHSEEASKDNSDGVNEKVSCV

Histamine H1 receptor = Histamine H1 receptor (Homo sapiens, UniProt P35367); experiment: Inhibition of histamine H1 receptor (unknown origin); conditions: concentration not given here
Sequence of Histamine H1 receptor (P35367 whole entry): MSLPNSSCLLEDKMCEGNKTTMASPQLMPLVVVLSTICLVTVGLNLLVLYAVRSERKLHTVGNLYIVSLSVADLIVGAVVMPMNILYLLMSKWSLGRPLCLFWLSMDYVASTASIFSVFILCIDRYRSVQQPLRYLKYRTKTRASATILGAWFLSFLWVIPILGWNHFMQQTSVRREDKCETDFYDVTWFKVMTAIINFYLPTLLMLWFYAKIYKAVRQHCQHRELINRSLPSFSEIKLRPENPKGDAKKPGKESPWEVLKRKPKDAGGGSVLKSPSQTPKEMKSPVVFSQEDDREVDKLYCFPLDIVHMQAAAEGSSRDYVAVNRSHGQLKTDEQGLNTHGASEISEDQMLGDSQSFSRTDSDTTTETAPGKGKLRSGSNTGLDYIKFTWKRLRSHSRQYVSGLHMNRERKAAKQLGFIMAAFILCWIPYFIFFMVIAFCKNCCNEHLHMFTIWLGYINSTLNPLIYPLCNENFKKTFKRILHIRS

[11] = biological target: Glutamate [NMDA] receptor (Homo sapiens) (UniProt Q05586+Q12879+Q13224+O15399+O60391+Q14957+Q8TCU5); experiment: Inhibition of NMDA receptor (unknown origin); conditions: concentration not given here
[12] = Inhibition of human dopamine D4.2 receptor
D(3) dopamine receptor [13] = biological target: T1, D(3) dopamine receptor; experiment: Inhibition of human dopamine D3 receptor
D(2) dopamine receptor = D(2) dopamine receptor (Homo sapiens, UniProt P14416); experiment: Inhibition of human dopamine D2 receptor
Sequence of D(2) dopamine receptor (P14416 whole entry): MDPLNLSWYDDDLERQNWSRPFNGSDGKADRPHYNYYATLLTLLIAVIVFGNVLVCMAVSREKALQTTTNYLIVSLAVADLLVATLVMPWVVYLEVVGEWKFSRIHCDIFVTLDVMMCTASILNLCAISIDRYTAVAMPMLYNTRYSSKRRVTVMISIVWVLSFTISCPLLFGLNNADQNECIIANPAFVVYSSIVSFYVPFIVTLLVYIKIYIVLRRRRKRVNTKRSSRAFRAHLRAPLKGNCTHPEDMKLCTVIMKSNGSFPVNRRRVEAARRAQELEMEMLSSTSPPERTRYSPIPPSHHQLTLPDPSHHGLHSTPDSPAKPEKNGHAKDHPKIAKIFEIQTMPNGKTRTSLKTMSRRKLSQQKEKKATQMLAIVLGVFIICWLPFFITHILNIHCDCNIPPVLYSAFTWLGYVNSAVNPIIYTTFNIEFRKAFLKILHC

[14] = Oral bioavailability in rat at 20 mg/kg; format: ADME, organism-based; conditions: in vivo
D(4) dopamine receptor = biological target: T2, D(4) dopamine receptor (Homo sapiens, UniProt P21917); experiment: Inhibition of human dopamine D4 receptor
T2 sequence (P21917 whole entry): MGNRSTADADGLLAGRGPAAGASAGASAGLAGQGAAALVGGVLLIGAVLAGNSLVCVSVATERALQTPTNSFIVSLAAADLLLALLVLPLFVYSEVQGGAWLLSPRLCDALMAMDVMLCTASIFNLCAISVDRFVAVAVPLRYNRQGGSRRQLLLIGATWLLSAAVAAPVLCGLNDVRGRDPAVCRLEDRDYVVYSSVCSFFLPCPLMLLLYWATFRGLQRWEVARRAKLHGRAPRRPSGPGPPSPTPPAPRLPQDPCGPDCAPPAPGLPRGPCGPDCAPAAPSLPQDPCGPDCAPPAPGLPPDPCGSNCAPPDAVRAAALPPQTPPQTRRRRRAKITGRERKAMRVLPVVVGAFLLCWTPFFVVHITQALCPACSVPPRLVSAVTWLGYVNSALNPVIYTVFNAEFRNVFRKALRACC

Row | inhibition [1] | inhibition (D(3) dopamine receptor [2]) | inhibition (D(1B) dopamine receptor) | inhibition (Homo sapiens) | inhibition [3] | inhibition (D(1A) dopamine receptor) | Ki [4] | inhibition [5] | inhibition [6] | Ki [7] | inhibition [8] | inhibition [9] | inhibition [10] | inhibition (Histamine H1 receptor) | inhibition [11] | Ki [12] | Ki (D(3) dopamine receptor [13]) | Ki (D(2) dopamine receptor) | bioavailability [14] | Ki (D(4) dopamine receptor) | SMILES
1 | < 50% | < 50% | < 50% | < 50% | < 50% | < 50% | 2.1 nM | < 50% | < 50% | 2.2 nM | < 50% | < 50% | < 50% | < 50% | < 50% | 4.2 nM |  |  |  |  | c1ccc(-c2nc(CN3CCN(c4ncccn4)CC3)c[nH]2)cc1
2 |  |  |  |  |  |  |  |  |  |  |  |  |  |  |  |  | 1480 nM | 400 nM | > 40% | 5.6 nM | c1ccc(OCC2CN(Cc3c[nH]c4ccccc34)CCO2)cc1 (stereo not given)
